The source of these data is PubChem BioAssay (NCI).

Several values for one entry are separate records, joined by “and”; a condition that tells them apart may be missing. Equal entries are not always repeated.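 All cell lines were grown in 96-well plates and treated with compound for 48 hours. Here, GI50 denotes the concentration required for 50% inhibition of growth. At the TGI there is no net growth.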

Some test systems named below: 786-0 renal; DU-145 prostate; HOP-62 NSCLC; HOP-92 NSCLC; HS 578T breast; IGROV1 ovarian; MCF7 breast; NCI/ADR-RES ovarian; OVCAR-4 ovarian; PC-3 prostate.
Common to all, as to test: growth of human tumour cells (NCI), 48 h

In the case of `CC/C=C\C[C@H](O)C/C=C1/C(=O)C(Cl)=C[C@@H]1C/C=C\CCCC(=O)OC`, the GI50 in the assay on 786-0 renal is 0.486 µM; with DU-145 prostate it was 0.692 µM; in the assay with HOP-62 NSCLC, 0.53 µM; with HOP-92 NSCLC it was 2.57 µM; with HS 578T breast, 0.626 µM; in the assay with IGROV1 ovarian, 0.867 µM. The GI50 is 0.185 µM in the assay on MCF7 breast, 0.581 µM in the assay with NCI/ADR-RES ovarian, 0.723 µM with OVCAR-4 ovarian and 0.54 µM in the assay with PC-3 prostate. The TGI amounted to 1.56 µM in the assay on 786-0 renal; 2.7 µM in the assay with DU-145 prostate; 2.25 µM in the assay with HOP-62 NSCLC; 5.46 µM in the assay on HOP-92 NSCLC; 6.76 µM in the assay with HS 578T breast; 3.35 µM with IGROV1 ovarian. Besides, the TGI was determined as 2.44 µM in the assay with MCF7 breast, 9.14 µM in the assay with NCI/ADR-RES ovarian, 3.21 µM in the assay with OVCAR-4 ovarian and 2.33 µM with PC-3 prostate.

Regarding `COc1ccccc1/C=N\N/C(N)=N\N=C\c1ccccc1OC`, the GI50 was 0.609 µM with 786-0 renal; 0.386 µM in the assay with DU-145 prostate; 0.586 µM in the assay with HOP-62 NSCLC; 0.578 µM in the assay with HOP-92 NSCLC; 0.447 µM with HS 578T breast; 0.923 µM in the assay with IGROV1 ovarian. Further, the GI50 in the assay with MCF7 breast is 0.254 µM; in the assay on NCI/ADR-RES ovarian it was 0.39 µM; with OVCAR-4 ovarian, 1.05 µM; in the assay with PC-3 prostate it was 0.476 µM. In addition, the TGI in the assay with 786-0 renal worked out at 5.01 µM; with DU-145 prostate, 2.73 µM; in the assay with HOP-62 NSCLC it was 6.68 µM; with HOP-92 NSCLC, 31.6 µM; in the assay on HS 578T breast, 38.7 µM; with MCF7 breast, 4.36 µM. Further, the TGI is > 100 µM in the assay with OVCAR-4 ovarian and > 66.2 µM with PC-3 prostate.

Consider `O=C(Nc1ccc(Nc2ccncc2)cc1)c1ccc([N+](=O)[O-])cc1`, for which the GI50 is 3.47 µM in the assay on 786-0 renal; 8.87 µM in the assay on DU-145 prostate; 13.7 µM with HOP-62 NSCLC; 4.96 µM with HOP-92 NSCLC; 5.8 µM in the assay with HS 578T breast; 13 µM in the assay on IGROV1 ovarian. Moreover, the GI50 was 3.5 µM with MCF7 breast, 14.2 µM with NCI/ADR-RES ovarian, 5.37 µM with OVCAR-4 ovarian and 13.7 µM in the assay on PC-3 prostate. Moreover, the TGI in the assay on 786-0 renal stood at 14.6 µM; in the assay on DU-145 prostate, 42 µM; with HOP-62 NSCLC it was 29 µM; with HOP-92 NSCLC it was 21.7 µM; in the assay on HS 578T breast it was 25.9 µM; in the assay on IGROV1 ovarian, 36.9 µM. For the same compound, the TGI in the assay with MCF7 breast was 20.5 µM; with NCI/ADR-RES ovarian, > 62.5 µM; in the assay on OVCAR-4 ovarian, 27.4 µM; with PC-3 prostate, > 56.6 µM.

Consider `CC1(C)S[C@@H]2[C@H](NC(=O)C3(N)CCCCC3)C(=O)N2[C@H]1C(=O)O`, for which the TGI in the assay on 786-0 renal, in the assay on DU-145 prostate, with HOP-62 NSCLC, in the assay on HOP-92 NSCLC, with HS 578T breast and in the assay on IGROV1 ovarian was > 100 µM each time. For the same compound, the TGI in the assay on MCF7 breast, in the assay with NCI/ADR-RES ovarian, in the assay with OVCAR-4 ovarian and in the assay on PC-3 prostate was > 100 µM in each case.

In the case of `NC(=S)N/N=C/C(=O)O`, the GI50 is > 100 µM in the assay with 786-0 renal; > 100 µM in the assay on DU-145 prostate; > 100 µM with HOP-62 NSCLC; > 100 µM in the assay with HS 578T breast; 43.6 µM with IGROV1 ovarian; 5.58 µM in the assay with MCF7 breast. Also, the GI50 in the assay on NCI/ADR-RES ovarian is 96.3 µM; in the assay on OVCAR-4 ovarian, 37.5 µM; with PC-3 prostate, 67.7 µM. Besides, the TGI in the assay with 786-0 renal, with DU-145 prostate, in the assay with HOP-62 NSCLC, in the assay with HS 578T breast, in the assay with IGROV1 ovarian and in the assay with MCF7 breast was > 100 µM throughout. Besides, the TGI in the assay with NCI/ADR-RES ovarian, in the assay with OVCAR-4 ovarian and in the assay with PC-3 prostate was > 100 µM in each case.

Turning to `COC(=O)C[C@](O)(CCCC(C)(C)O)C(=O)O[C@@H]1C(OC)=C[C@]23CCCN2CCc2cc4c(cc2[C@H]13)OCO4`, the GI50 in the assay with 786-0 renal was 0.033 µM; in the assay on DU-145 prostate it was 0.0343 µM; in the assay with HOP-62 NSCLC it was 0.0363 µM; in the assay on HOP-92 NSCLC, 0.0224 µM; in the assay on HS 578T breast, 0.0333 µM; with IGROV1 ovarian, 0.0284 µM. Besides, the GI50 is < 0.01 µM in the assay with MCF7 breast, 0.934 µM in the assay with NCI/ADR-RES ovarian, 0.0221 µM with OVCAR-4 ovarian and 0.0288 µM in the assay on PC-3 prostate. Besides, the TGI in the assay on HOP-62 NSCLC was 0.366 µM and 0.265 µM; in the assay on HOP-92 NSCLC it was 0.633 µM and 0.156 µM; with IGROV1 ovarian, 1.4 µM and 0.795 µM; in the assay with MCF7 breast, 0.377 µM and 0.0666 µM; with NCI/ADR-RES ovarian, 14.6 µM; in the assay on OVCAR-4 ovarian, 1.15 µM and 0.149 µM.

As to `COc1cc(OCc2cccc(-c3ccc(C(O)c4nccs4)cc3)c2C)cc(OC)c1C=O` (configuration not stated), the GI50 in the assay with 786-0 renal was 2.16 µM; in the assay with DU-145 prostate, 2.81 µM; in the assay on HOP-62 NSCLC it was 3.88 µM; in the assay on HOP-92 NSCLC, 2.19 µM; in the assay with HS 578T breast it was 3.08 µM; with IGROV1 ovarian, 0.887 µM. The GI50 in the assay with MCF7 breast is 1.69 µM; in the assay with NCI/ADR-RES ovarian, 2.84 µM; in the assay with OVCAR-4 ovarian, 0.597 µM; in the assay with PC-3 prostate, 2.74 µM. Moreover, the TGI in the assay on 786-0 renal was found to be 7.2 µM; in the assay with DU-145 prostate it was 10.5 µM; in the assay on HOP-62 NSCLC it was 18.3 µM; in the assay on HOP-92 NSCLC, 8.52 µM; in the assay on HS 578T breast, 20.5 µM; in the assay on IGROV1 ovarian, 4.84 µM. Further, the TGI in the assay on MCF7 breast stood at 4.81 µM; in the assay on NCI/ADR-RES ovarian, 14.7 µM; in the assay with OVCAR-4 ovarian, 6.35 µM; in the assay with PC-3 prostate it was 11.2 µM.

In the case of `Cc1ccc(S(=O)(=O)Nc2ccccc2C=O)cc1`, the TGI with 786-0 renal was 35.9 µM; in the assay on DU-145 prostate, > 100 µM; in the assay with HOP-62 NSCLC, 85 µM; in the assay on HOP-92 NSCLC it was 13.1 µM; with HS 578T breast, 59.6 µM; in the assay with IGROV1 ovarian, 38.3 µM. Also, the TGI was 35.2 µM in the assay on MCF7 breast, 59 µM in the assay on NCI/ADR-RES ovarian, > 100 µM with OVCAR-4 ovarian and 35.6 µM with PC-3 prostate.
